The results in this text go back to ChEMBL document CHEMBL4334551, “Discovery of a New Sulfonamide Hepatitis B Capsid Assembly Modulator” (ACS Med Chem Lett, 2020).

Each structure is given as a SMILES string. pEC50, pIC50: −log10 of the molar value.

For data set [1], the system named is Hepatitis B virus. The experiment in a line: Antiviral activity in HBV infected in human HepAD38 cells assessed as reduction in viral replication incubated for 65 hrs by RT-PCR analysis. It is filed as functional, organism-based. To be noted: HePAD38, 65 h.
A short description of data set [2]: Cytotoxicity against human HepAD38 cells assessed as reduction in cell viability incubated for 65 hrs by EZ-Cytox cell viability assay. It is filed as cell-based.
Data set [3] addresses T1, Voltage-gated inwardly rectifying potassium channel KCNH2 (Homo sapiens, UniProt Q12809). Briefly: Inhibition of human ERG expressed in human HEK293 cells by patch clamp assay. It is filed as cell-based. A general note: Patch clamp records ionic current or voltage across a cell membrane.
For data set [4], the system named is Hepatitis B virus. The experiment in a line: Potency index, ratio of EC50 of NVR3-778 to EC50 of compound for antiviral activity in HBV infected in human HepAD38 cells assessed as reduction in viral replication incubated for 65 hrs by RT-PCR analysis. It is filed as functional.
Data set [5] concerns the target T2, Cytochrome P450 1A2 (Homo sapiens, UniProt P05177).
T2 sequence (P05177 whole entry): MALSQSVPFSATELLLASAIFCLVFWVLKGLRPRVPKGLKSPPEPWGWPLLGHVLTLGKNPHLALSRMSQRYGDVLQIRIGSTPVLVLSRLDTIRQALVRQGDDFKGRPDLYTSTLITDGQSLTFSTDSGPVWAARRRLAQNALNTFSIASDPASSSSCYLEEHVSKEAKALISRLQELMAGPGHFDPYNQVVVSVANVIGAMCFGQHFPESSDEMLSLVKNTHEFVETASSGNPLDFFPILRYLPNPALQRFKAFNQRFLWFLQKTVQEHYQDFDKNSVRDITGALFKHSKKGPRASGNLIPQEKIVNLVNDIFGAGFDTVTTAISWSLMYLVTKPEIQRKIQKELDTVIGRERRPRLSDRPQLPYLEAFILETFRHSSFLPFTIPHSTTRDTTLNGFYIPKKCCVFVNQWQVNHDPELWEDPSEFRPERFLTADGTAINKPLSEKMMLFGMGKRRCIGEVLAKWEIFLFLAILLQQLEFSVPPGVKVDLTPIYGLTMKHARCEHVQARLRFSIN
Briefly: Inhibition of human CYP1A2 using phenacetin as substrate by LC/MS/MS analysis. It is filed as ADME.

Data set [6] addresses Cytochrome P450 2C9 (Homo sapiens, UniProt P11712). Briefly: Inhibition of human CYP2C9 using tolubutamide as substrate by LC/MS/MS analysis. It is filed as ADME.
In data set [7] the target is Cytochrome P450 2C19 (Homo sapiens, UniProt P33261). The experiment in a line: Inhibition of human CYP2C19 using S-mephenytoin as substrate by LC/MS/MS analysis. It is filed as ADME.
Sequence of Cytochrome P450 2C19 (P33261 whole entry): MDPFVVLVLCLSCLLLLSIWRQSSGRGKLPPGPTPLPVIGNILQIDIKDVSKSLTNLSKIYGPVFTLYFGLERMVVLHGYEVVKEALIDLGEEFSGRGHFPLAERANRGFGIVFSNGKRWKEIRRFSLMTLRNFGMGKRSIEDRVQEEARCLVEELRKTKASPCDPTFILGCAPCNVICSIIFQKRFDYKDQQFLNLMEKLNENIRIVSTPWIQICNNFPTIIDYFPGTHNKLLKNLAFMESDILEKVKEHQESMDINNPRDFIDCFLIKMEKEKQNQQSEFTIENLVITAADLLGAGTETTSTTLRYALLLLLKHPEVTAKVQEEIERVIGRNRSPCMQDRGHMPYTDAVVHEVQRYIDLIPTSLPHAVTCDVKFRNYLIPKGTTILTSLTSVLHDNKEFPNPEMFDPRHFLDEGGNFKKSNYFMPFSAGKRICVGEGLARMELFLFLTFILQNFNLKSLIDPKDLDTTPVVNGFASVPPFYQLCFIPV
The target of data set [8] is Cytochrome P450 2D6 (Homo sapiens, UniProt P10635). The experiment in a line: Inhibition of human CYP2D6 using dextromethorphan as substrate by LC/MS/MS analysis. It is filed as ADME.
Sequence of Cytochrome P450 2D6 (P10635 whole entry): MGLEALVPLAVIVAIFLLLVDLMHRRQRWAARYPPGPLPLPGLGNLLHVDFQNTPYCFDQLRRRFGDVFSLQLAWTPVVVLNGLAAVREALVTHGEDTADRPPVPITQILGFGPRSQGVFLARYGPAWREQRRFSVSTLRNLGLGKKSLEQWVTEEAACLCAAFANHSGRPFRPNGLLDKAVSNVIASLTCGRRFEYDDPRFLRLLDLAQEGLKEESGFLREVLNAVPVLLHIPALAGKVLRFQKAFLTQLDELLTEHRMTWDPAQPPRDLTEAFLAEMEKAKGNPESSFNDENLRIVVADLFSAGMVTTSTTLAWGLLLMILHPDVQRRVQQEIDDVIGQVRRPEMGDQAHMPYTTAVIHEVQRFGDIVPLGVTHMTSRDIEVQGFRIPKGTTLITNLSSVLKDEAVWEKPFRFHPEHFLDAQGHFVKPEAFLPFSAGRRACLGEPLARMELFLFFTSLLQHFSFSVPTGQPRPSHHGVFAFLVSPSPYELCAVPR
Data set [9] addresses Cytochrome P450 3A4 (Homo sapiens, UniProt P08684). Briefly: Inhibition of human CYP3A4 using […] as substrate by LC/MS/MS analysis. It is filed as ADME.
The target of data set [10] is T1, Voltage-gated inwardly rectifying potassium channel KCNH2. Briefly: Inhibition of human ERG by competitive fluorescence polarization assay. On the technique in general: Fluorescence polarisation rises when a labelled molecule tumbles more slowly, as on binding a larger partner.
Data set [11] is described as follows: Stability in rat liver microsomes assessed as compound remaining at 1 uM incubated for 30 mins by LC/MS/MS analysis. It is filed as ADME, Microsome. To be noted: read-out: Stability.
Data set [12] is described as follows: Stability in human liver microsomes assessed as compound remaining at 1 uM incubated for 30 mins by LC/MS/MS analysis. It is filed as ADME, Microsome. The conditions noted are these: read-out: Stability.
Data set [13] is described as follows: Stability in rat liver microsomes assessed as half life at 1 uM incubated for 30 mins by LC/MS/MS analysis. It is filed as ADME, Microsome. (In general: Microsomes from liver hold many membrane-bound enzymes, among them those of drug oxidation.)
Data set [14] is described as follows: Stability in rat plasma assessed as compound remaining at 5 uM incubated for 4 hrs by LC/MS/MS analysis. It is filed as ADME, cell-free. To be noted: read-out: Stability.
The nature of data set [15]: Stability in human plasma assessed as compound remaining at 5 uM incubated for 4 hrs by LC/MS/MS analysis. The conditions noted are these: read-out: Stability. It is filed as ADME, cell-free.
Data set [16] can be described thus: Protein binding in rat plasma assessed as compound remaining at 5 uM incubated for 4 hrs by LC/MS/MS analysis. It is filed as ADME, cell-free. The conditions noted are these: read-out: PPB.
The nature of data set [17]: Protein binding in human plasma assessed as compound remaining at 5 uM incubated for 4 hrs by LC/MS/MS analysis. The conditions noted are these: read-out: PPB (converted). It is filed as ADME, cell-free.
Data set [18] is described as follows: Half life in Sprague-Dawley rat at 5 mg/kg, iv measured upto 24 hrs by LC/MS/MS analysis. It is filed as ADME, organism-based. To be noted: in vivo.
The nature of data set [19]: AUClast in Sprague-Dawley rat at 5 mg/kg, iv measured upto 24 hrs by LC/MS/MS analysis. It is filed as ADME, organism-based. Further details: time < 24 hr, dose 5 mg/kg, route intravenous. To be noted: in vivo.
Data set [20] can be described thus: Clearance in Sprague-Dawley rat at 5 mg/kg, iv measured upto 24 hrs by LC/MS/MS analysis. It is filed as ADME, organism-based. To be noted: in vivo.
Data set [21] can be described thus: Volume of distribution at steady state in Sprague-Dawley rat at 5 mg/kg, iv measured upto 24 hrs by LC/MS/MS analysis. It is filed as ADME, organism-based. The conditions noted are these: in vivo, read-out: Vdss.
Data set [22] in a line: Tmax in Sprague-Dawley rat at 5 mg/kg, po measured upto 24 hrs by LC/MS/MS analysis. It is filed as ADME, organism-based. To be noted: in vivo.
A short description of data set [23]: Cmax in Sprague-Dawley rat at 5 mg/kg, po measured upto 24 hrs by LC/MS/MS analysis. It is filed as ADME, organism-based. Further details: dose 5 mg/kg, route oral. To be noted: in vivo.
Data set [24] is described as follows: Half life in Sprague-Dawley rat at 5 mg/kg, po measured upto 24 hrs by LC/MS/MS analysis. It is filed as ADME, organism-based. The conditions noted are these: in vivo.
The nature of data set [25]: AUClast in Sprague-Dawley rat at 5 mg/kg, po measured upto 24 hrs by LC/MS/MS analysis. It is filed as ADME, organism-based. Details: dose 5 mg/kg, time < 24 hr, route oral. The conditions noted are these: in vivo.
Data set [26] in a line: AUC in Sprague-Dawley rat at 5 mg/kg, po measured upto 24 hrs by LC/MS/MS analysis. It is filed as ADME, organism-based. Further details: dose 5 mg/kg, time < 24 hr, route oral. To be noted: in vivo.
Data set [27] in a line: Oral bioavailability in Sprague-Dawley rat at 5 mg/kg measured upto 24 hrs by LC/MS/MS analysis. It is filed as ADME, organism-based. To be noted: in vivo.
Data set [28] can be described thus: AUC in Sprague-Dawley rat at 5 mg/kg, iv measured upto 24 hrs by LC/MS/MS analysis. It is filed as ADME, organism-based. Further details: dose 5 mg/kg, time < 24 hr, route intravenous. The conditions noted are these: in vivo.
The test system of data set [29] is Hepatitis B virus. Briefly: Antiviral activity in HBV infected in human HepG2.2.15 cells assessed as reduction in viral replication incubated for 5 days by qPCR analysis. It is filed as functional, organism-based. To be noted: HepG2.2.15, 120 h.

For orientation: pEC50 means the EC50 on a negative log10 scale, so that one unit is a factor of ten. The term CC50 denotes the concentration at which the toxic effect on the cells reaches its halfway point. Broadly, the pIC50 is the negative decadic logarithm of the IC50, by convention in mol/L. The low end stands for a high IC50, the high end for a low IC50. One may read the half-life as how long it takes for the measured level to halve. The AUC(0-t) is exposure summed from dosing to a finite time, without extrapolation to infinity. What is called clearance is the rate of elimination divided by the concentration. The low end stands for a low capacity for elimination, the high end for a high capacity for elimination. One may read the Tmax as the time at which the peak concentration occurs. A word on the Cmax: it is the peak of the concentration-time curve. Usually AUC stands for the area under the concentration-time curve, a measure of exposure. A higher AUC goes with high exposure. By bioavailability is commonly meant dose-corrected exposure relative to a reference, in per cent. Higher therefore signals good availability.

T1 sequence (Q12809 whole entry): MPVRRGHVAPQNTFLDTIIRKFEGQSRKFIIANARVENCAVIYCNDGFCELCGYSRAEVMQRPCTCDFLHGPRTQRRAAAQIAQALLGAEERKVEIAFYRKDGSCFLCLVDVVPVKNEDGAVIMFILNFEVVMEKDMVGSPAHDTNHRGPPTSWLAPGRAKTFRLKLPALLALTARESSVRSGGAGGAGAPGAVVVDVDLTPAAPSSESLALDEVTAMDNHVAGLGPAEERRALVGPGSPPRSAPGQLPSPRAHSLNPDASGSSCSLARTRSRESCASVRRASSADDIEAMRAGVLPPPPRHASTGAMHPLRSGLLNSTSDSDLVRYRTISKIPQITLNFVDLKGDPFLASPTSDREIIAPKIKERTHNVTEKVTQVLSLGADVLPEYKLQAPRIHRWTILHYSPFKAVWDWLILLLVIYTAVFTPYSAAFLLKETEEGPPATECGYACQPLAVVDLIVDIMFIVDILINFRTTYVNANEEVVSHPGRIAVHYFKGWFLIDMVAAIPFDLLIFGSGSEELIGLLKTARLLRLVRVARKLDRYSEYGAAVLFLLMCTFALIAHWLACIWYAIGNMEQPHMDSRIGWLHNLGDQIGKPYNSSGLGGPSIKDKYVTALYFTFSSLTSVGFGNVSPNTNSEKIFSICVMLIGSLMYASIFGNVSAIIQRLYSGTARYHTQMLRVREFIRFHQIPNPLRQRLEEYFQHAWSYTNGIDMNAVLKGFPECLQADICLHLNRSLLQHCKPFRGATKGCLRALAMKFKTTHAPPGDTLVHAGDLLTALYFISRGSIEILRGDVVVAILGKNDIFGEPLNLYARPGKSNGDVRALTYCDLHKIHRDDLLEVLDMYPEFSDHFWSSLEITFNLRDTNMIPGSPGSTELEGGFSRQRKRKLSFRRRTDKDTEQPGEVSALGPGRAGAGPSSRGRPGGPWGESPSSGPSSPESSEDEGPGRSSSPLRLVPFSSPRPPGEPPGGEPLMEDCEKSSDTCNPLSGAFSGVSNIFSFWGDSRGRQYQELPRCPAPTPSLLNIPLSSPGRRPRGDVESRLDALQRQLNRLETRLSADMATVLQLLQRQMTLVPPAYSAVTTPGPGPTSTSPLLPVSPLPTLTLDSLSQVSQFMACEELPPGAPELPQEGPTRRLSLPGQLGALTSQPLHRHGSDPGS
Sequence of Cytochrome P450 2C9 (P11712 whole entry): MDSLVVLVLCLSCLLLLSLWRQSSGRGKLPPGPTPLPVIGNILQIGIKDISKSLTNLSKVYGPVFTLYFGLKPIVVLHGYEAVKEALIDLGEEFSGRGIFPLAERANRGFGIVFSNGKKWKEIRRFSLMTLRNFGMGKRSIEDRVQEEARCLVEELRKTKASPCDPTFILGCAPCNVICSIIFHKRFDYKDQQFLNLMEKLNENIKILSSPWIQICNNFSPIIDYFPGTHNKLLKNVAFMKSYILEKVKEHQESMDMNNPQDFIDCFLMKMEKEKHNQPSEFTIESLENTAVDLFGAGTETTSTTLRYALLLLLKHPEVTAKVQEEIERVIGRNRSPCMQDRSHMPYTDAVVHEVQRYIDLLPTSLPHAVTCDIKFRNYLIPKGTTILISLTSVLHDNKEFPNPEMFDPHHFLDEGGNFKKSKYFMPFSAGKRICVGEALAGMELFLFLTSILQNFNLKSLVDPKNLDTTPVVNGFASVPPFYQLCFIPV
Sequence of Cytochrome P450 3A4 (P08684 whole entry): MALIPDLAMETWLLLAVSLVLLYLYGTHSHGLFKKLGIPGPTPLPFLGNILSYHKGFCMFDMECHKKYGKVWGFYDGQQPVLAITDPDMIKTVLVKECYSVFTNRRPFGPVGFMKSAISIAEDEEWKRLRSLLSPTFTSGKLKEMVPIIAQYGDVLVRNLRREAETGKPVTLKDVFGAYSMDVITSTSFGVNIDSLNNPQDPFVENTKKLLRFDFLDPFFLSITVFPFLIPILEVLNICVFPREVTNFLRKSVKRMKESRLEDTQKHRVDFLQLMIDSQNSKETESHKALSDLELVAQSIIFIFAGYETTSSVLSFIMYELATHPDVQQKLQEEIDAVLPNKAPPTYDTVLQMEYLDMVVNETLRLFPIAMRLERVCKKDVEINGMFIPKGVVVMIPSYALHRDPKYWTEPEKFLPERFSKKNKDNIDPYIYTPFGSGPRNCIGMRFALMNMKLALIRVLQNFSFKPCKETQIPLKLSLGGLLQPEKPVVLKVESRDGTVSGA

For `COc1ccc(S(=O)(=O)N2CCC(O)CC2)cc1C(=O)Nc1cc(F)c(F)c(F)c1`, the pEC50 in data set [1] is below 5.48. For the same compound, the CC50 at 65 h in [2] is above 100 µM.

As to `Nc1ccc(S(=O)(=O)N2CCC(O)CC2)cc1C(=O)Nc1cc(F)c(F)c(F)c1`, the pEC50 in data set [1] was 6.62. Also, the cytotoxic concentration (CC50) at 65 h in [2] is 76.9 µM.

As to `O=C(Nc1cc(F)c(F)c(F)c1)c1cccc(S(=O)(=O)N2CCC(O)CC2)c1`, the pEC50 in data set [1] was 6.01. In addition, the CC50 at 65 h in data set [2] is 77.7 µM.

In the case of `Nc1cc(C(=O)Nc2cc(F)c(F)c(F)c2)cc(S(=O)(=O)N2CCC(O)CC2)c1F`, the negative logarithm of the EC50 (pEC50) in [1] is 6.55. The cytotoxic concentration (CC50) at 65 h in data set [2] came out at 87.9 µM.

Take `CNc1cc(F)c(S(=O)(=O)N2CCC(O)CC2)cc1C(=O)Nc1cc(F)c(F)c(F)c1`: in [1], the pEC50 is below 5.48. In addition, in data set [2], the CC50 at 65 h was above 100 µM.

For `Nc1cc(F)c(S(=O)(=O)N2CCC(O)CC2)cc1C(=O)Nc1cc(F)c(F)c(F)c1`, the negative-log IC50 (pIC50) in data set [3] was 5.06; in data set [5], 4.09; in data set [6] it was 4.77; in data set [7], 4.64; in data set [8] it was 4.49; in [9] it was 4.56. In [10], this compound had a pIC50 of 4.96. Moreover, in [4], the “Ratio EC50” value was found to be 9. For the same compound, the pEC50 in data set [1] was 7.36. Moreover, in data set [2], the CC50 at 65 h worked out at 48.9 µM. In addition, the values for the remaining at 0.5 h, 1 µM in data set [11] and in data set [12] were 49.2% and 50.2%, respectively. Besides, the half-life at 1 µM in data set [13] came out at 0.481 h. In addition, the remaining at 4 h, 5 µM stood at 90.1% in data set [14], 71.9% in data set [15] and 98.7% in data set [16]. The fraction unbound at 4 h, 5 µM in [17] was 0.0073. In addition, the half-life is 6.67 h in data set [18] and 3.44 h in data set [24]. In addition, the figures for the AUC(0-t) at 24 h in data set [19] and in data set [25] were 6300 ng·h/mL and 5050 ng·h/mL, respectively. The compound further showed a clearance in [20] of 13.5 mL/min/kg. The Vd in [21] was found to be 2.95 L/kg. Also, the Tmax in data set [22] worked out at 1.58 h. This compound also had a Cmax in data set [23] of 940 ng/mL. The area under the curve (AUC) at 24 h in data set [26] came to 5090 ng·h/mL; in data set [28], 6420 ng·h/mL. The bioavailability in data set [27] is 80.2%.

Consider `O=C(Nc1cc(F)c(F)c(F)c1)c1ccc(F)c(S(=O)(=O)N2CCC(O)CC2)c1`, for which the pEC50 in [29] was 8.19; in data set [1], 6.44. In data set [2], the CC50 at 65 h turned out to be 57.7 µM.

Turning to `O=C(Nc1cc(F)c(F)c(F)c1)c1cc(S(=O)(=O)N2CCC(O)CC2)ccc1O`, in [1], the pEC50 is below 5.48. In addition, the CC50 at 65 h in data set [2] is above 100 µM.

For the compound `CSc1ccc(S(=O)(=O)N2CCC(O)CC2)cc1C(=O)Nc1cc(F)c(F)c(F)c1`, the negative-log EC50 (pEC50) in [1] is 6.14. Further, the 50% cytotoxic concentration (CC50) at 65 h in [2] is above 100 µM.

`CN(C)c1ccc(S(=O)(=O)N2CCC(O)CC2)cc1C(=O)Nc1cc(F)c(F)c(F)c1`: the pEC50 in data set [1] was below 5.48. In data set [2], the CC50 at 65 h is above 100 µM.

Turning to `O=C(Nc1cc(F)c(F)c(F)c1)c1cc(Br)c(F)c(S(=O)(=O)N2CCC(O)CC2)c1`, the negative-log EC50 (pEC50) in data set [1] was below 5.48. Moreover, the CC50 at 65 h in [2] is above 100 µM.

On to `O=C(Nc1cc(F)c(F)c(F)c1)c1cc(S(=O)(=O)N2CCC(O)CC2)cc2cc[nH]c12`, for which, in [1], the pEC50 was below 5.48. In addition, in [2], the CC50 at 65 h was above 100 µM.
